Source: ChEMBL document CHEMBL5329222, “Discovery of novel tubulin CBSI (R)-9k from the indanone scaffold for the treatment of colorectal cancer” (RSC Med Chem, 2023)
pIC50: −log10 of the molar value. Active and inactive are the calls of the source. The calls are words filed in the database; no cut-off is given here.

What was measured:
[1] = test system: HeLa; test: Growth inhibition of human HeLa cells incubated for 1.5 hrs by MTT assay; type: functional, cell-based
[2] = test system: A2780; test: Growth inhibition of human A2780 cells incubated for 1.5 hrs by MTT assay; type: functional, cell-based; settings: A2780, 1.5 h
[3] = test system: HCT-116; test: Growth inhibition of human HCT-116 cells incubated for 1.5 hrs by MTT assay; type: functional, cell-based; settings: HCT-116, 1.5 h
[4] = test system: CT26; test: Growth inhibition of CT26 cells incubated for 1.5 hrs by MTT assay; type: functional, cell-based; settings: Mus musculus, CT26, 1.5 h
[5] = molecular target: T1, Tubulin (Bos taurus) (UniProt Q6B856+Q862L2+Q862F3); test: (§1) Inhibition of bovine brain tubulin polymerization measured at 2 to 20 mins by spectrophotometer analysis; settings: time 2-20 min
[6] = molecular target: Tubulin (Bos taurus, UniProt Q6B856+Q862L2+Q862F3); test: as §1
[7] = molecular target: T1, Tubulin (Bos taurus); test: Inhibition of bovine brain tubulin polymerization at 6 uM measured at 2 to 20 mins by spectrophotometer analysis relative to control; settings: time 2-20 min
[8] = molecular target: T1, Tubulin (Bos taurus); test: Inhibition of bovine brain tubulin polymerization at 12 uM measured at 2 to 20 mins by spectrophotometer analysis relative to control; settings: time 2-20 min
[9] = molecular target: Tubulin beta (Homo sapiens) (UniProt P68371+Q9H4B7+Q13509+P04350+Q3ZCM7+P07437+Q13885+Q9BVA1+Q9BUF5+A6NNZ2); test: Binding affinity to beta-tubulin colchicine binding site in human HCT-116 cells assessed as inhibition of EBI-beta-tubulin adduct band formation at 1 to 25 uM preincubated for 2 hrs followed by EBI addition measured after 1.5 hrs by EBI competition based Western blotting analysis; type: cell-based; settings: dose 1-25 µM, time 3.5 hrs
[10] = test system: HCT-116; test: Induction of cell cycle arrest in human HCT-116 cells assessed as accumulation of cells at G1 phase at 1.5 uM incubated for 24 hrs by flow cytometry analysis (reference value: 68.74%); type: functional
[11] = test system: HCT-116; test: Induction of cell cycle arrest in human HCT-116 cells assessed as accumulation of cells at G1 phase at 3 uM incubated for 24 hrs by flow cytometry analysis (reference value: 68.74%); type: functional
[12] = test system: HCT-116; test: Induction of cell cycle arrest in human HCT-116 cells assessed as accumulation of cells at G1 phase at 6 uM incubated for 24 hrs by flow cytometry analysis (reference value: 68.74%); type: functional
[13] = test system: HCT-116; test: Induction of cell cycle arrest in human HCT-116 cells assessed as accumulation of cells at G2/M phase at 1.5 uM incubated for 24 hrs by flow cytometry analysis (reference value: 18.25%); type: functional
[14] = test system: HCT-116; test: Induction of cell cycle arrest in human HCT-116 cells assessed as accumulation of cells at G2/M phase at 6 uM incubated for 24 hrs by flow cytometry analysis (reference value: 18.25%); type: functional
[15] = test system: HCT-116; test: Induction of cell cycle arrest in human HCT-116 cells assessed as accumulation of cells at S phase at 6 uM incubated for 24 hrs by flow cytometry analysis (reference value: 3.61%); type: functional
[16] = test system: HCT-116; test: Induction of apoptosis in human HCT-116 cells assessed as viable cells at 1.5 uM incubated for 24 hrs by annexin V-FITC/7-AAD staining based flow cytometry analysis (reference value: 90.19%); type: functional; settings: read-out: Activity
[17] = test system: HCT-116; test: Induction of apoptosis in human HCT-116 cells assessed as viable cells at 3 uM incubated for 24 hrs by annexin V-FITC/7-AAD staining based flow cytometry analysis (reference value: 90.19%); type: functional; settings: read-out: Activity
[18] = test system: HCT-116; test: Induction of apoptosis in human HCT-116 cells assessed as viable cells at 6 uM incubated for 24 hrs by annexin V-FITC/7-AAD staining based flow cytometry analysis (reference value: 90.19%); type: functional; settings: read-out: Activity
[19] = test system: HCT-116; test: Induction of apoptosis in human HCT-116 cells assessed as early apoptotic cells at 1.5 uM incubated for 24 hrs by annexin V-FITC/7-AAD staining based flow cytometry analysis (reference value: 5.82%); type: functional
[20] = test system: HCT-116; test: Induction of apoptosis in human HCT-116 cells assessed as early apoptotic cells at 3 uM incubated for 24 hrs by annexin V-FITC/7-AAD staining based flow cytometry analysis (reference value: 5.82%); type: functional
[21] = test system: HCT-116; test: Induction of apoptosis in human HCT-116 cells assessed as early apoptotic cells at 6 uM incubated for 24 hrs by annexin V-FITC/7-AAD staining based flow cytometry analysis (reference value: 5.82%); type: functional
[22] = test system: HCT-116; test: Induction of apoptosis in human HCT-116 cells assessed as late apoptotic cells at 3 uM incubated for 24 hrs by annexin V-FITC/7-AAD staining based flow cytometry analysis (reference value: 1.53%); type: functional
[23] = test system: HCT-116; test: Induction of apoptosis in human HCT-116 cells assessed as necrotic cells at 1.5 uM incubated for 24 hrs by annexin V-FITC/7-AAD staining based flow cytometry analysis (reference value: 2.46%); type: functional
[24] = test system: HCT-116; test: Induction of apoptosis in human HCT-116 cells assessed as necrotic cells at 3 uM incubated for 24 hrs by annexin V-FITC/7-AAD staining based flow cytometry analysis (reference value: 2.46%); type: functional
[25] = test system: HCT-116; test: Inhibition of colony formation in human HCT-116 cells incubated for 48 hrs by crystal violet staining based analysis; type: functional, cell-based; settings: dose 0.1-2 µM
[26] = test system: HCT-116; test: Antiproliferative activity against human HCT-116 cells assessed as inhibition of cell growth at 2 uM incubated for 2 weeks by […]; type: functional, cell-based
[27] = test system: HCT-116; test: Inhibition of colony formation in human HCT-116 cells at 0.1 uM incubated for 48 hrs by crystal violet staining based analysis; type: functional; settings: HCT-116, 48 h, values are per cent of control
[28] = test system: HCT-116; test: Inhibition of cell migration in human HCT-116 cells at 1 uM measured for 24 hrs by scratch wound healing assay; type: functional
[29] = test system: HCT-116; test: Inhibition of cell migration in human HCT-116 cells at 2 uM measured for 24 hrs by scratch wound healing assay; type: functional
[30] = test system: HCT-116; test: Inhibition of cell migration in human HCT-116 cells at 5 uM measured for 24 hrs by scratch wound healing assay; type: functional
[31] = test system: HCT-116; test: Inhibition of cell migration in human HCT-116 cells measured for 24 hrs by scratch wound healing assay; type: functional, cell-based; settings: dose 0.5-5 µM
[32] = Cytotoxicity against HEK293 cells assessed as inhibition of cell growth incubated 1.5 hrs by MTT assay; type: toxicity, cell-based; settings: human
[33] = Cytotoxicity against human HUVEC cells assessed as inhibition of cell growth incubated 1.5 hrs by MTT assay; type: toxicity, cell-based
[34] = Potency index, ratio of test compound IC50 to 5-fluorouracil IC50 for cytotoxicity against HEK293 cells assessed as inhibition of cell growth incubated 1.5 hrs by MTT assay; type: toxicity, cell-based; settings: human, read-out: Ratio IC50
[35] = Potency index, ratio of test compound IC50 to 5-fluorouracil IC50 for cytotoxicity against human HUVEC cells assessed as inhibition of cell growth incubated 1.5 hrs by MTT assay; type: toxicity, cell-based; settings: read-out: Ratio IC50
[36] = molecular target: hERG (KCNH2) (Homo sapiens, UniProt Q12809); test: Inhibition of hERG expressed in CHO cells at 40 uM by automated patch clamp analysis relative to control; type: toxicity, cell-based; settings: CHO cells that express hERG
Chain of hERG (KCNH2) (Q12809 whole entry): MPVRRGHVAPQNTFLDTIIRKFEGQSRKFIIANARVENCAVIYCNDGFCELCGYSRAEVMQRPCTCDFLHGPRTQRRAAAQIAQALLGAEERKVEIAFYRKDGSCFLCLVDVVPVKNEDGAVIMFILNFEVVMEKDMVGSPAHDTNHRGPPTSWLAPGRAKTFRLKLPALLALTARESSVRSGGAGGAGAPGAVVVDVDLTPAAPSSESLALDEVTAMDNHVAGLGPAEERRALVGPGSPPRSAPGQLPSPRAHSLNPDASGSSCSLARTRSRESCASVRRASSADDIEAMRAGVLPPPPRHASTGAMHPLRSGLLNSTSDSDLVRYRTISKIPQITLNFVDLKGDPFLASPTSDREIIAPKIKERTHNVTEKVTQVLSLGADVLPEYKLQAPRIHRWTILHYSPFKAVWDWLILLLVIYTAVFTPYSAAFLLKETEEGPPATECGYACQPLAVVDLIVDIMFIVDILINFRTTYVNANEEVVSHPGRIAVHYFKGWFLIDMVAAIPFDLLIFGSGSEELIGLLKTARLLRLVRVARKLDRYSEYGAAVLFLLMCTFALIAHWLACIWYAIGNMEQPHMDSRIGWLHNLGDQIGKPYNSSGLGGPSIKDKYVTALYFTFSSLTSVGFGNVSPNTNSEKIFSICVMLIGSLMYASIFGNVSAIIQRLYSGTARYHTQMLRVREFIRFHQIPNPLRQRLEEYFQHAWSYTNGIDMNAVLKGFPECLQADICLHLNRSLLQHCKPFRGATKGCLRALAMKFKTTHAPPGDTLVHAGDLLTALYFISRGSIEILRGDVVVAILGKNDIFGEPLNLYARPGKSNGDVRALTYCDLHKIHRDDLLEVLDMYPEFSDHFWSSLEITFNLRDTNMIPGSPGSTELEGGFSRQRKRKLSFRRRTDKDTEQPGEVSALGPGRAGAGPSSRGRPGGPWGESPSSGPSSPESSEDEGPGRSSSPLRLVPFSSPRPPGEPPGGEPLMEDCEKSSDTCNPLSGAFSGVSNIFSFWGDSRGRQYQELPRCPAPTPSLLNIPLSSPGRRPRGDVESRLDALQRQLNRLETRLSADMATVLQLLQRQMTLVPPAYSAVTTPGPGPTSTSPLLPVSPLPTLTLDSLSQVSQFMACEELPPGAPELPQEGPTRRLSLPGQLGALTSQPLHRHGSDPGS

CCOc1ccc([C@H]2CC(=O)c3cc(OC)c(OC)c(OC)c32)cc1F
pIC50 [1]: 6.42
pIC50 [2]: 6.23
pIC50 [3]: 6.59
pIC50 [4]: 5.39
inhibition [5]: Dose-Dependent Effect
IC50 [6]: 6.1 µM
inhibition [7]: 54%
inhibition [8]: 66%
Activity [9]: Active
Activity [10]: 65.69%
Activity [11]: 62.85%
Activity [12]: 35.2%
Activity [13]: 24.41%
Activity [14]: 47.34%
Activity [15]: 5.1%
viability at 1.5 µM [16]: 86.7%
viability at 3 µM [17]: 73%
viability at 6 µM [18]: 60.5%
Activity [19]: 8.12%
Activity [20]: 18.75%
Activity [21]: 21.2%
Activity [22]: 5.07%
Activity [23]: 2.28%
Activity [24]: 3.2%
inhibition [25]: Dose-Dependent Effect
Activity [26]: Active
growth, % of control at 0.1 µM [27]: 57.9%
inhibition at 1 µM [28]: 43%
inhibition at 2 µM [29]: 55%
inhibition at 5 µM [30]: 80%
inhibition [31]: Dose-Dependent Effect
IC50 at 1.5 h [32]: 7.45 µM
IC50 at 1.5 h [33]: 15 µM
selectivity ratio at 1.5 h [34]: 1.39
selectivity ratio at 1.5 h [35]: 1.6
inhibition at 40 µM [36]: 42%
